d = 2'-deoxy (DNA); r = 2'-OH (RNA)
Experiments:
[1] = system: human colon cancer HTC-116 cells; assay: Cell proliferation assay (calcein-AM) in human colon cancer HTC-116 cells; format: cell-based; conditions: for cell proliferation / proliferation: treatment 6 h; for cell proliferation: 72 h exposure, FIG. 14; for proliferation: at 72 h, 0.17% Lipofectamine 2000 or 0.1% Injectin, FIGS. 19B and 20B
Procedure: (§1) SK-HEP-1, T24, HT-1080 and HCT-116 cell lines were maintained in a humidified atmosphere of 5% CO2 at 37° C. SK-HEP-1 cells were grown in RPMI-1640 (Sigma, St. Louis, Mo.) supplemented with 20% fetal bovine serum (FBS) (Gibco, UK), 100 U/mL penicillin G, 0.25 μg/mL amphotericin B, 100 μg/mL streptomycin (Gibco, UK), 25 mM sodium bicarbonate (Merck, Germany) and 25 mM N-2-hydroxyethylpiperazine-N′-2-ethanosulfonic acid (HEPES) (Sigma, St. Louis, Mo.). T24 and HT-1080 cells were grown, respectively, in Dulbecco's Modified Eagle's Medium (DMEM)—high glucose (Sigma, St. Louis, Mo.) and DMEM—low glucose (Sigma, St. Louis, Mo.), supplemented with 10% FBS (Gibco, UK), 100 U/mL penicillin G, 0.25 μg/mL amphotericin B, 100 μg/mL streptomycin (Gibco, UK), 25 mM sodium bicarbonate (Merck, Germany) and 25 mM HEPES (Sigma, St. Louis, Mo.). HCT-116 cells were grown in McCoy's 5A (Sigma, St. Louis, Mo.) supplemented with 10% FBS (Gibco, UK), 100 U/mL penicillin G, 0.25 μg/mL amphotericin B, 100 μg/mL streptomycin (Gibco, UK), 25 mM sodium bicarbonate (Merck, Germany) and 25 mM HEPES (Sigma, St. Louis, Mo.). For all cell lines the medium was changed every 2 days, and cells reached confluence 3-4 days after initial seeding. For subculturing, cells were dissociated with 0.25% trypsin-ethylenediaminetetraacetic acid (EDTA) (Sigma, St. Louis, Mo.), split 1:15 or 1:20 and subcultured in a 21-cm^2 growth area (Sarstedt, Germany).
Cell proliferation was measured using calcein-AM (Thermo Fisher Scientific, USA). The membrane permeant calcein-AM, a nonfluorescent dye, is taken up and converted by intracellular esterases to membrane impermeant calcein, which emits green fluorescence. Cells were plated in 96-well plates with black walls clear bottom (BD Biosciences, USA) and incubated 24 h under normal growth conditions. Cells were incubated with test items at 37° C., 5% C02. After the incubation period, serum and antibiotic was restored and cells were further incubated at normal conditions during 72 h. After treatment with test substances or vehicle, cells were washed twice with Hanks' medium and loaded with 2 μM calcein-AM in Hanks' medium, at 37° C. for 30 min. Fluorescence was measured at 485 nm excitation and 530 nm emission wavelengths in a microplate spectrofluorometer (Gemini EM, Molecular Devices). Nine consecutive fluorescence measurements are performed per well, to allow fluorescence readings in the whole area of the well, which was then considered for the calculation of mean fluorescence per well. To determine minimum staining for calcein (calceinmin), eight wells were treated with ethanol 30 min before calcein-AM addition. The percent cell number is calculated as [(calceinsample)/(calceincontrol)]×100.

LAT1 = LAT1 activity: [^14C]-L-leucine uptake in SK-HEP-1 cells after LAT1 gene silencing; format: cell-based, human; conditions: for inhibiting sodium-independent [^14C]-L-leucine transport: LAT1 siRNA, general statement, conditions not given; for [^14C]-L-leucine (0.25 μM) uptake at initial rate of uptake (1 min): liver carcinoma SK-HEP-1 cells, 10 nM siRNA, treatment 6 h, at 24 h and 48 h, 0.4% Lipofectamine 2000, FIGS. 5A and 5C
Procedure: Cells were plated in 24-well plates (Sarstedt, Germany) and grown until confluence was reached. On the day of the experiment, cell culture medium was aspirated and cells were preincubated for 15 min in Hanks' medium (NaCl 140 mM, KCl 5 mM, MgSO4.7H2O 0.8 mM, K2HPO4 0.33 mM, KH2PO4 0.44 mM, MgCl2.6H2O 1 mM, CaCl2) 0.025 mM, Tris-HCl 9.75 mM, pH 7.4). Uptake was initiated by addition of Hanks' medium with 0.25 μM [^14C]-L-leucine in the absence and in the presence of 3 mM unlabeled L-leucine. During preincubation and incubation cells were continuously shaken and maintained at 37° C. Uptake was terminated after 1 min by rapid removal of uptake solution by means of a vacuum pump connected to a Pasteur pipette, followed by a rapid wash with Hanks' medium. Subsequently, cells were solubilized in 0.1% vol/vol Triton X-100 (dissolved in 5 mM Tris-HCl, pH 7.4), and radioactivity was measured by liquid scintillation counting.
(§2) Cells were plated in 24-well (Sarstedt, Germany) or 6-well plates (Sarstedt, Germany) or 96-well plates with black walls clear bottom (BD Biosciences, USA) and incubated 24 h under normal growth conditions. siRNAs against LAT1 and transfection agent were diluted at desired concentrations and mixed according to transfection agent manufacturer's instructions. The mixture was incubated 20 min at RT for siRNA-complex formation, after which it was added to the cells and incubated at 37° C., 5% CO2. After the incubation period, serum and antibiotic was restored and cells were further incubated at normal conditions for the desired time points until evaluation of LAT1 activity or LAT1 expression (immunoblotting and RT-qPCR).

LAT1 mRNA [2] = assay: LAT1 gene expression (RT-qPCR, relative to GAPDH) after LAT1 gene silencing in SK-HEP-1 cells; format: cell-based, human; conditions: at 24 h; for LAT1 mRNA relative abundance: liver carcinoma SK-HEP-1 cells, 10 nM siRNA, treatment 6 h, Lipofectamine 2000, FIG. 4A
Procedure: as §1
(§3) Total RNA was isolated and purified using the SV Total RNA Isolation System (Promega, USA) according to manufacturer's instructions. RNA quality and concentration were verified in the NanoDrop ND1000 Spectrophotometer (Thermo Scientific, USA), and RNA integrity and genomic DNA contamination were evaluated by agarose gel electrophoresis. Total RNA (1 μg) was converted into cDNA using the Maxima Scientific First Strand cDNA Synthesis Kit for RT-qPCR (Thermo Scientific, USA), according to instructions. The following protocol was used: 1st step, 10 min at 25° C.; 2nd step, 15 min at 50° C.; 3rd step, 5 min at 85° C. cDNA was used for qPCR analysis using Maxima SYBR Green qPCR Master Mix (Thermo Scientific, USA) in the StepOnePlus instrument (Applied Biosystems, USA). QuantiTect Primer Assay for LAT1 and ASCT2 and for the endogenous control gene GAPDH (Quiagen, Germany) were used. The qPCR reaction was performed in 96-well PCR plates (Sarstedt, Germany) as follows: one cycle of 10 min at 95° C., followed by 40 PCR cycles at 95° C. 15 s and 60° C. 60 s. […] No template controls were always evaluated for each target gene. Quantification cycle (Cq) values were generated automatically by the StepOnePlus 2.3 Software and the ratio of the target gene was expressed in comparison to the endogenous control gene GAPDH.
as §2

LAT1 mRNA [3] = assay: LAT1 gene expression (RT-qPCR) after LAT1 gene silencing in human colon cancer HTC-116 cells; format: cell-based; conditions: treatment 6 h, 72 h, 0.17% Lipofectamine 2000 or 0.1% Injectin, FIG. 19A
Procedure: as §1, §3, §2

ASCT2 mRNA = assay: ASCT2 gene expression (RT-qPCR) after ASCT2 gene silencing in human colon cancer HTC-116 cells; format: cell-based; conditions: treatment 6 h, 72 h, 0.17% Lipofectamine 2000 or 0.1% Injectin, FIG. 20A
Procedure: as §1, §3
as §2, with “ASCT2” for “LAT1”

6 (AACATCACGCTGCTCAACGGC; chemistry not given here) [compound 6]
cell proliferation ([1]; 0.1% Injectin): decreased | inhibiting sodium-independent [^14C]-L-leucine transport (LAT1): particularly effective | [^14C]-L-leucine (0.25 μM) uptake at initial rate of uptake (1 min) (LAT1): decreased | LAT1 mRNA relative abundance (LAT1 mRNA [2]): decreased

22 (AACATTGTGCTGGCATTATAC; chemistry not given here) [compound 22]
cell proliferation ([1]; 0.1% Injectin): decreased | inhibiting sodium-independent [^14C]-L-leucine transport (LAT1): particularly effective | [^14C]-L-leucine (0.25 μM) uptake at initial rate of uptake (1 min) (LAT1): decreased | LAT1 mRNA relative abundance (LAT1 mRNA [2]): decreased

34 (AAGGACATCTTCTCCGTCATC; chemistry not given here) [compound 34]
cell proliferation ([1]; 0.1% Injectin): decreased | inhibiting sodium-independent [^14C]-L-leucine transport (LAT1): particularly effective | [^14C]-L-leucine (0.25 μM) uptake at initial rate of uptake (1 min) (LAT1): decreased | LAT1 mRNA relative abundance (LAT1 mRNA [2]): decreased

58 (CTTCGCCACCTACCTGCTCAA; chemistry not given here) [compound 58]
Effect on cell proliferation compared with SEQ ID NO: 34 ([1]; 72 h, 0.1% Injectin, p<0.05): significantly greater | inhibiting sodium-independent [^14C]-L-leucine transport (LAT1): particularly effective | Effect on [^14C]-L-leucine uptake compared with SEQ ID NO: 34 (LAT1; SK-HEP-1 cells, 10 nM, p<0.05): significantly greater | [^14C]-L-leucine (0.25 μM) uptake at initial rate of uptake (1 min) (LAT1): decreased | Effect on LAT1 mRNA relative abundance compared with SEQ ID NO: 34 (LAT1 mRNA [2]; SK-HEP-1 cells, 10 nM, p<0.05): significantly greater | LAT1 mRNA relative abundance (LAT1 mRNA [2]): decreased

58/389/390 (sense UCGCCACCUACCUGCUCAATT; antisense UUGAGCAGGUAGGUGGCGATT; siRNA; sugars by position and backbone not given here; further chemistry not fully specified)
Effect on cell proliferation compared with SEQ ID NO: 58 ([1]; 72 h, 0.1% Injectin, p<0.05): significantly greater | cell proliferation ([1]; 0.1% Injectin): decreased | proliferation [1]: significantly decreased | LAT1 mRNA relative abundance (LAT1 mRNA [3]): significantly decreased

58/389/412 (sense UCGCCACCUACCUGCUCAATT; antisense UUGAGCAGGUAGGUGGCGAUG; siRNA; sense: sugars from the 5' end r19 d2, backbone not given here; antisense: RNA, backbone not given here)
Effect on cell proliferation compared with SEQ ID NO: 58 ([1]; 72 h, 0.1% Injectin, p<0.05): significantly greater | cell proliferation ([1]; 0.1% Injectin): decreased

61 (CGTGAACTGCTACAGCGTGAA; chemistry not given here) [compound 61]
inhibiting sodium-independent [^14C]-L-leucine transport (LAT1): particularly effective | [^14C]-L-leucine (0.25 μM) uptake at initial rate of uptake (1 min) (LAT1): decreased | LAT1 mRNA relative abundance (LAT1 mRNA [2]): decreased

61/393/394 (chain 1 UGAACUGCUACAGCGUGAATT; chain 2 UUCACUCUGUAGCAGUUCATT; siRNA; sugars by position and backbone not given here; further chemistry not fully specified)
cell proliferation ([1]; 0.1% Injectin): decreased | proliferation [1]: significantly decreased | LAT1 mRNA relative abundance (LAT1 mRNA [3]): significantly decreased

61/395/396 (chain 1 UGAACUGCUACAGCGUGAATT; chain 2 UUCACUCUGUAGCAGUUCACG; siRNA; chain 1: sugars from the 5' end r19 d2, backbone not given here; chain 2: RNA, backbone not given here)
cell proliferation ([1]; 0.1% Injectin): decreased

267/399/400 (sense GGUCCUGUACCGUCCUCAATT; antisense UUGAGGACGGUACAGGACCTT; siRNA; sugars by position and backbone not given here; further chemistry not fully specified)
ASCT2 mRNA relative abundance (ASCT2 mRNA): significantly decreased | cell proliferation ([1]; 0.1% Injectin): decreased | proliferation [1]: significantly decreased

267/401/402 (sense GGUCCUGUACCGUCCUCAATT; antisense UUGAGGACGGUACAGGACCGG; siRNA; sense: sugars from the 5' end r19 d2, backbone not given here; antisense: RNA, backbone not given here)
Effect on cell proliferation compared with SEQ ID NO: 267/356/402 ([1]; 72 h, 0.1% Injectin, p<0.05): significantly greater | cell proliferation ([1]; 0.1% Injectin): decreased

278/405/406 (sense CCACGGUCGCCUCUGAGAATT; antisense UUCUCAGAGGCGACCGUGGTT; siRNA; sugars by position and backbone not given here; further chemistry not fully specified)
ASCT2 mRNA relative abundance (ASCT2 mRNA): significantly decreased | Effect on cell proliferation compared with SEQ ID NO: 278/367/408 ([1]; 72 h, 0.1% Injectin, p<0.05): significantly greater | cell proliferation ([1]; 0.1% Injectin): decreased | proliferation [1]: significantly decreased

278/407/408 (sense CCACGGUCGCCUCUGAGAATT; antisense UUCUCAGAGGCGACCGUGGCA; siRNA; sense: sugars from the 5' end r19 d2, backbone not given here; antisense: RNA, backbone not given here)
Effect on cell proliferation compared with SEQ ID NO: 278/367/408 ([1]; 72 h, 0.1% Injectin, p<0.05): significantly greater | cell proliferation ([1]; 0.1% Injectin): decreased

Source: patent US10590422B2, “Anticancer therapeutic intervention” (PHYZAT BIOPHARMACEUTICALS, LDA., priority 2017, dated 2020)
